This is an account of results in article PMC12775802, “Dual targeting of AMRC12 and Malassezia globosa disrupts MYC liquid condensates-driven nuclear pore complex biogenesis in neuroblastoma” (Theranostics, 2026).

The experiment has as its target ARMC12 (Homo sapiens, UniProt Q5T9G4). The note with it: recombinant wild-type protein; 20 uM (Figure 4F legend; b48 prints 20 mM); 4 °C, 2 h; compound covalently conjugated to beads; site at R320.

ARMC12, sequence (Q5T9G4 1-367 isoform Q5T9G4-2): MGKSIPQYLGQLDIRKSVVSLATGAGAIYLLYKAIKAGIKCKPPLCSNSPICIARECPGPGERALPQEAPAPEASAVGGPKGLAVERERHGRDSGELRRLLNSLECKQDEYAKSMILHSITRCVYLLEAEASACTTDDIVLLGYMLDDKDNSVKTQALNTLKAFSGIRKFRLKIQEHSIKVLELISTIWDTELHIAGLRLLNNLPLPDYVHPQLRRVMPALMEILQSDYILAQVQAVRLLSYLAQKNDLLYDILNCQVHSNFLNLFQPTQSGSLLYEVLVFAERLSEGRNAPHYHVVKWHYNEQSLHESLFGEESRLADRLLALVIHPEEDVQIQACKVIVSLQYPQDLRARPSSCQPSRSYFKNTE

As for `Clc1ccc(C(Cn2ccnc2)OCc2ccsc2Cl)c(Cl)c1` (stereo not shown) [TCZ, tioconazole], the “affinity purification on compound-conjugated NHS beads, western blot” value was “TCZ directly interacted with recombinant wild-type ARMC12 protein rather than its mutant”.
